Legend:
[1] = molecular target: Bcr-abl T315I (Ba/F3.p210^T315I cells) (Homo sapiens, UniProt P00519, T315I, cells depend on it); assay: Proliferation assay (MTT), T315I mutant Bcr-abl expressing Ba/F3 cells; type: cell-based, murine; settings: 48 h, drug concentrations 0.005-10 μM
Text: Wild type Bcr-abl expressing 32D (32D.p210) and Ba/F3 (Ba/F3.p210) cells, and mutant Bcr-abl expressing cell lines Ba/F3.p210^G250E, Ba/F3.p210^E255V, Ba/F3.p210^T315I, Ba/F3.p210^F317L and Ba/F3.p210^M351T, as well as Ba/F3 cells transformed with Flt-3-ITD kinase. Additional assays included Ba/F3 cells expressing the fusion protein kinases TEL-PDGFRβ, TEL-JAK1, NPM-ALK, TEL-cKit, Tel-Bmx, Tel-FGR3, Tel-Lck and Ba/F3.TPR-met cells. All the above cell lines were maintained in RPMI-1640 medium with L-Glutamine, 10% FBS and 1 mg/ml geneticin (Gibco).
(§1) Cells (0.3-0.6×10^6/ml) were plated in duplicate or triplicate in 96-well plates containing increasing drug concentrations (0.005-10 μM). After incubation at 37° C. in 5% CO2 for 48 h, the effect of the compounds on cell viability was determined by MTT (Promega) colorimetric dye reduction method. Inhibition of cell proliferation was calculated as a percentage of growth of DMSO treated cells, and IC50 values were determined with Microsoft Excel XLfit3.

[2] = tested on: Ba/F3 cells (IL-3 dependent murine pro-B cell line); assay: Proliferation assay (MTT), parental Ba/F3 cells; type: cell-based; settings: Mus musculus, 48 h, drug concentrations 0.005-10 μM, read-out: BaF3
Procedure: Interleukin-3 (IL-3) dependent murine pro-B cell line, Ba/F3, and murine myeloid precursor cell line, 32D, were maintained in RPMI-1640 medium supplemented with L-Glutamine, 10% FBS and 10 U/ml recombinant murine IL-3 (Roche). Mo7e human megakarioblastic cell line was grown in RPMI-1640 medium supplemented with L-Glutamine, 20% FBS and 5 ng/ml recombinant human granulocyte macrophage cell stimulating factor (GM-CSF) (R&D Systems) or 200 ng/ml stem cell factor (SCF) (Biosource).
as §1

IC50 [1] [µM] | Compound | IC50 [2] [µM]
> 10 | Cc1nn(C)c(C)c1-c1cc(Nc2ccc(OC(F)(F)F)cc2)ncn1 [N-(4-(trifluoromethoxy)phenyl)-6-(1,3,5-trimethyl-1H-pyrazol-4-yl)pyrimidin-4-amine] | > 10
> 10 | FC(F)(F)Oc1ccc(Nc2cc(-n3ccnc3NCCN3CCOCC3)ncn2)cc1 | > 10
> 10 | COc1cccc2cc(-c3cc(Nc4ccc(OC(F)(F)F)cc4)ncn3)ccc12 | > 10
> 10 | Cc1c(Nc2ccc(OC(F)(F)F)cc2)ncnc1-c1ccc(-c2ccccc2)cc1 | > 10
> 10 | CCNC(=O)c1cc2c(Nc3ccc(OC(F)(F)F)cc3)ncnc2s1 | > 10
> 10 | O=C(c1cc2c(Nc3ccc(OC(F)(F)F)cc3)ncnc2s1)N1CCC(O)CC1 | > 10
> 10 | Cc1nc(-c2cc(Nc3ccc(OC(F)(F)F)cc3)ncn2)cs1 | > 10
3.83 | O=Cc1cc(-c2cc(Nc3ccc(OC(F)(F)F)cc3)ncn2)co1 | > 10
> 10 | Cc1c(Nc2ccc(OC(F)(F)F)cc2)ncnc1-c1cccc(C(=O)O)c1 | > 10
> 10 | O=c1cc(-c2cc(Nc3ccc(OC(F)(F)F)cc3)ncn2)cc[nH]1 | > 10
> 10 | Cc1ccc(S(=O)(=O)Nc2ccc(-c3cc(Nc4ccc(OC(F)(F)F)cc4)ncn3)cc2)cc1 | > 10
> 10 | O=C(O)c1cc2c(Nc3ccc(OC(F)(F)F)cc3)ncnc2s1 | > 10
> 10 | O=C(NCCN1CCOCC1)c1cc2c(Nc3ccc(OC(F)(F)F)cc3)ncnc2s1 [drawing 343] | > 10
> 10 | CC(=O)Nc1cccc(-c2ncnc(Nc3ccc(OC(F)(F)F)cc3)c2C)c1 | > 10
> 10 | Cc1c(Nc2ccc(OC(F)(F)F)cc2)ncnc1-c1ccc(CN)cc1 | > 10
> 10 | FC(F)(F)Oc1ccc(Nc2ncnc(NCCN3CCOCC3)c2Br)cc1 | > 10
> 10 | FC(F)(F)Oc1ccc(Nc2ncnc3sccc23)cc1 | > 10

IC50 [1] [µM] | Compound | IC50 [2] [µM]
> 10 | CN(C)C1CCN(C(=O)c2cc3c(Nc4ccc(OC(F)(F)F)cc4)ncnc3s2)C1 (centres unmarked) | > 10
> 10 | FC(F)(F)Oc1ccc(Nc2cc(-n3ccnc3Nc3ccc(OC(F)(F)F)cc3)ncn2)cc1 | > 10
> 10 | CN(C)C1CCN(Cc2cc3c(Nc4ccc(OC(F)(F)F)cc4)ncnc3s2)C1 (centres unmarked) | > 10
> 10 | FC(F)(F)Oc1ccc(Nc2cc(-n3ccc4cccnc43)ncn2)cc1 | > 10
> 10 | NC(=O)C1CCCN(c2ncnc(Nc3ccc(OC(F)(F)F)cc3)c2Br)C1 (centres unmarked) | > 10
> 10 | FC(F)(F)Oc1ccc(Nc2cc(-c3ccnc4[nH]ccc34)ncn2)cc1 | 6.85
> 10 | O=[N+]([O-])c1cccc(-c2cc(Nc3ccc(OC(F)(F)F)cc3)ncn2)c1 | > 10
> 10 | O=C(NCCO)c1cc2c(Nc3ccc(OC(F)(F)F)cc3)ncnc2s1 [N-(2-hydroxyethyl)-4-(4-(trifluoromethoxy)phenylamino)thieno[2,3-d]pyrimidine-6-carboxamide] | > 10
> 10 | Cc1c(Nc2ccc(OC(F)(F)F)cc2)ncnc1-c1cccc2[nH]ccc12 | > 10
> 10 | Cc1c(Nc2ccc(OC(F)(F)F)cc2)ncnc1-c1cccc(C(N)=O)c1 | > 10
> 10 | COC(=O)c1cc2c(Nc3ccc(OC(F)(F)F)cc3)ncnc2s1 | > 10
> 10 | Nc1cc(C2CC2)n(-c2cc(Nc3ccc(OC(F)(F)F)cc3)ncn2)n1 | > 10
> 10 | Cc1ccc(S(=O)(=O)Nc2ccc(-c3ncnc(Nc4ccc(OC(F)(F)F)cc4)c3C)cc2)cc1 | > 10
~0.46 | FC(F)(F)Oc1ccc(Nc2cc(-c3cn[nH]c3)ncn2)cc1 | > 10
> 10 | COc1cccc2cc(-c3ncnc(Nc4ccc(OC(F)(F)F)cc4)c3C)ccc12 | > 10
> 10 | Cc1cc2c(Nc3ccc(OC(F)(F)F)cc3)ncnc2s1 | > 10
> 10 | Cc1ccc(NC(=O)c2ccccc2)cc1Nc1nccn1-c1cc(Nc2ccc(OC(F)(F)F)cc2)ncn1 | > 10

Compound | IC50 [1] [µM] | IC50 [2] [µM]
N#CCc1cccc(-c2cc(Nc3ccc(OC(F)(F)F)cc3)ncn2)c1 | 3.39 | 8.82
FC(F)(F)Oc1ccc(Nc2cc(-c3ccc4[nH]ccc4c3)ncn2)cc1 | 8.71 | > 10
O=S(=O)(NCCO)c1ccc(-c2cc(Nc3ccc(OC(F)(F)F)cc3)ncn2)cc1 | 1.45 | > 10
CNS(=O)(=O)c1ccc(-c2ncnc(Nc3ccc(OC(F)(F)F)cc3)c2C)cc1 | 2.13 | 2.5
FC(F)(F)Oc1ccc(Nc2cc(-c3c[nH]c4ccccc34)ncn2)cc1 | 9.28 | > 10
FC(F)(F)Oc1ccc(Nc2cc(-c3cnn(Cc4ccccc4)c3)ncn2)cc1 | 1.3 | > 10
FC(F)(F)Oc1ccc(Nc2cc(-c3cccc4c3oc3ccccc34)ncn2)cc1 | 4.6 | > 10
CCCC(C)S(=O)(=O)Nc1ccc(-c2cc(Nc3ccc(OC(F)(F)F)cc3)ncn2)cc1 (centres unmarked) | 1.66 | 3.8
CS(=O)(=O)c1ccc(-c2cc(Nc3ccc(OC(F)(F)F)cc3)ncn2)cc1 | 6.1 | > 10
FC(F)(F)Oc1ccc(Nc2cc(-c3cnn(Cc4ccncc4)c3)ncn2)cc1 | 4 | 7.3
CN1CCN(C(=O)c2cc3c(Nc4ccc(OC(F)(F)F)cc4)ncnc3s2)CC1 | 1.25 | 2.69
FC(F)(F)Oc1ccc(Nc2cc(-c3cc(Nc4ccc(OC(F)(F)F)cc4)ncn3)ncn2)cc1 | 7 | > 10
CC(C)Cn1cc(-c2cc(Nc3ccc(OC(F)(F)F)cc3)ncn2)cn1 | 1.55 | > 10
CS(=O)(=O)Nc1ccc(-c2cc(Nc3ccc(OC(F)(F)F)cc3)ncn2)cc1 | 0.6 | 2.21
FC(F)(F)Oc1ccc(Nc2cc(-c3cccc4[nH]ccc34)ncn2)cc1 | 6.67 | > 10
O=C(c1cc2c(Nc3ccc(OC(F)(F)F)cc3)ncnc2s1)N1CCC[C@H]1CO | 1.21 | 3.66
CCS(=O)(=O)n1cc(-c2cc(Nc3ccc(OC(F)(F)F)cc3)ncn2)cn1 | 4.25 | > 10

Compound | IC50 [1] [µM] | IC50 [2] [µM]
O=C(c1cc2c(Nc3ccc(OC(F)(F)F)cc3)ncnc2s1)N1CCN(c2cccc(C(F)(F)F)c2)CC1 | 1.92 | 4.55
O=C(NC1CCN(Cc2ccccc2)C1)c1cc2c(Nc3ccc(OC(F)(F)F)cc3)ncnc2s1 (centres unmarked) | 0.621 | 0.926
Cc1c(-c2cc(Nc3ccc(OC(F)(F)F)cc3)ncn2)cnn1-c1ccccc1 | 6.23 | > 10
O=Cc1cc(-c2cc(Nc3ccc(OC(F)(F)F)cc3)ncn2)ccc1F | 5.84 | 4.12
CCN(CC)S(=O)(=O)c1ccc(-c2cc(Nc3ccc(OC(F)(F)F)cc3)ncn2)cc1 | 3.88 | 8.85
NS(=O)(=O)c1ccc(-c2cc(Nc3ccc(OC(F)(F)F)cc3)ncn2)cc1 | 1.05 | > 10
FC(F)(F)Oc1ccc(Nc2cc(-c3cccc4sccc34)ncn2)cc1 | 3.74 | 3.06
O=S(=O)(c1ccc(-c2cc(Nc3ccc(OC(F)(F)F)cc3)ncn2)cc1)N1CCCCC1 | 1.41 | > 10
Cc1ccc(NC(=O)c2ccc(CN3CCOCC3)c(C(F)(F)F)c2)cc1Nc1nccn1-c1cc(Nc2ccc(OC(F)(F)F)cc2)ncn1 | 6.61 | > 10
O=S(=O)(c1ccc(-c2cc(Nc3ccc(OC(F)(F)F)cc3)ncn2)cc1)N1CCOCC1 | 2.63 | > 10
Cc1c(Nc2ccc(OC(F)(F)F)cc2)ncnc1-c1ccc(C(=O)NCCO)cc1 | 4.67 | > 10
Cc1c(Nc2ccc(OC(F)(F)F)cc2)ncnc1-c1ccc(C(=O)NCCN2CCOCC2)cc1 | 0.81 | 3.79
CCNS(=O)(=O)c1ccc(-c2cc(Nc3ccc(OC(F)(F)F)cc3)ncn2)cc1 | 1.85 | > 10
FC(F)(F)Oc1ccc(Nc2cc(-c3ccc(-c4ccccc4)cc3)ncn2)cc1 | 3.18 | > 10
Cc1c(Nc2ccc(OC(F)(F)F)cc2)ncnc1-c1cnn(-c2ccccc2)c1C | 5.24 | 8.85
CN1CCN(c2cc(-c3cc(Nc4ccc(OC(F)(F)F)cc4)ncn3)ccn2)CC1 | 0.386 | 0.71
